Measurements taken from US20220324835A1 (Nurix Therapeutics, Inc., priority 2018, published 2022).

Tests used:
[1] = target: Cbl-b (Homo sapiens, UniProt Q13191); test: Cbl-b inhibition assay (Cbl-b activity assay, FRET, Biological Example 1; 100 mM NaCl, 60 nM Src kinase); format: biochemical; conditions: upper bound stated in text lists; read-out: IC50 values in the Cbl-b inhibition assay of Biological Example 1
Procedure, shortened: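 Binding-based Cbl-b activity assay. Src-phosphorylated, N-terminally biotin-Avi-tagged Cbl-b recruits labelled UbcH5B-Ub, and proximity to streptavidin-terbium yields FRET.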

[2] = system: T-cell; test: IL-2 secretion from T-cells co-stimulated with anti-CD3 and anti-CD28 antibody (Biological Example 2); format: cell-based, human; conditions: Homo sapiens, T-cell; for fold induction at 4 µM: 4 μM Cbl-b inhibitor
Procedure, shortened: (§1)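 No assay protocol given; T-cells stimulated with anti-CD3 alone or anti-CD3 plus anti-CD28, with or without Cbl-b inhibitor. Activation read as IL-2 secretion or CD25 surface staining, expressed as fold over baseline from uninhibited cells […].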

[3] = system: T-cell; test: CD25 cell surface staining on T-cells co-stimulated with anti-CD3 and anti-CD28 antibody (Biological Example 2); format: cell-based, human; conditions: Homo sapiens, T-cell; for fold induction at 4 µM: 4 μM Cbl-b inhibitor
Procedure, shortened: as §1

[4] = fold change over baseline, 0.3 μM Cbl-b inhibitor, primary human total T-cells, read-out: IL-2 secretion Anti-CD3/Anti-CD28 stimulation
[5] = fold change over baseline, 1 μM Cbl-b inhibitor, primary human total T-cells, read-out: IL-2 secretion Anti-CD3/Anti-CD28 stimulation
[6] = fold change over baseline, primary human total T-cells, read-out: IL-2 secretion Anti-CD3/Anti-CD28 stimulation
[7] = fold change over baseline, 0.3 μM Cbl-b inhibitor, primary human total T-cells, read-out: CD25 staining Anti-CD3/Anti-CD28 stimulation
[8] = fold change over baseline, 1 μM Cbl-b inhibitor, primary human total T-cells, read-out: CD25 staining Anti-CD3/Anti-CD28 stimulation
[9] = fold change over baseline, primary human total T-cells, read-out: CD25 staining Anti-CD3/Anti-CD28 stimulation
[10] = 0.3 μM compound, primary human total T-cells, baseline = anti-CD3/anti-CD28 stimulated cells without inhibitor, read-out: IL-2 secretion, Anti-CD3/Anti-CD28 stimulation, fold change over baseline
[11] = 1 μM compound, primary human total T-cells, baseline = anti-CD3/anti-CD28 stimulated cells without inhibitor, read-out: IL-2 secretion, Anti-CD3/Anti-CD28 stimulation, fold change over baseline
[12] = 0.3 μM compound, primary human total T-cells, baseline = anti-CD3/anti-CD28 stimulated cells without inhibitor, read-out: CD25 staining, Anti-CD3/Anti-CD28 stimulation, fold change over baseline
[13] = 1 μM compound, primary human total T-cells, baseline = anti-CD3/anti-CD28 stimulated cells without inhibitor, read-out: CD25 staining, Anti-CD3/Anti-CD28 stimulation, fold change over baseline
[14] = 0.3 μM Cbl-b inhibitor, fold change over baseline (anti-CD3/anti-CD28 stimulated T-cells without inhibitor), read-out: IL-2 secretion Anti-CD3/Anti-CD28 stimulation
[15] = 1 μM Cbl-b inhibitor, fold change over baseline (anti-CD3/anti-CD28 stimulated T-cells without inhibitor), read-out: IL-2 secretion Anti-CD3/Anti-CD28 stimulation
[16] = 0.3 μM Cbl-b inhibitor, fold change over baseline (anti-CD3/anti-CD28 stimulated T-cells without inhibitor), read-out: CD25 staining Anti-CD3/Anti-CD28 stimulation
[17] = 1 μM Cbl-b inhibitor, fold change over baseline (anti-CD3/anti-CD28 stimulated T-cells without inhibitor), read-out: CD25 staining Anti-CD3/Anti-CD28 stimulation

Cbl-b, sequence (Q13191 36-427): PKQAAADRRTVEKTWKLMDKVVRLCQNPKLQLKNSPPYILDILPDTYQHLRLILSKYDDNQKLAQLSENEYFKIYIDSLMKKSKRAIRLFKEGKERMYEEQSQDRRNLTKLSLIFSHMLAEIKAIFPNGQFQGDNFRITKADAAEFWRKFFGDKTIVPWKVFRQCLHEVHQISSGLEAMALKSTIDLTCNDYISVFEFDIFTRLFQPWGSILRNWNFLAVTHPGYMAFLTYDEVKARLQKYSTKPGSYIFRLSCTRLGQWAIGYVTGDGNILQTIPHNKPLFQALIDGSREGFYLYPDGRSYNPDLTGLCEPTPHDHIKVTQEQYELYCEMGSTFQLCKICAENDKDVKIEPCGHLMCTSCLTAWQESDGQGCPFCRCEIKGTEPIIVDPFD

Compound	IC50 [1]	fold induction at 0.3 µM [2, 4]	fold induction at 1 µM [2, 5]	fold induction at 4 µM [2, 6]	fold induction at 0.3 µM [3, 7]	fold induction at 1 µM [3, 8]	fold induction at 4 µM [3, 9]	fold induction at 0.3 µM [2, 10]	fold induction at 1 µM [2, 11]	fold induction at 0.3 µM [3, 12]	fold induction at 1 µM [3, 13]	fold induction at 0.3 µM [2, 14]	fold induction at 1 µM [2, 15]	fold induction at 0.3 µM [3, 16]	fold induction at 1 µM [3, 17]
C[C@H](Sc1nncn1C)c1cccc(NC(=O)c2ccc(C#N)c(C3CC3)n2)c1 [Compound 92, 5-cyano-6-cyclopropyl-N-[3-[(1S)-1-[(4-methyl-1,2,4-triazol-3-yl)sulfanyl]ethyl]phenyl]pyridine-2-carboxamide]	≤ 100 nM	1.01 to 2.5	2.51 to 5	5 to 7.5	1.01 to 1.3	1.31 to 1.5	1.31 to 1.5								
C[C@H](Sc1nncn1C)c1cccc(NC(=O)c2ccnc(C3CC3)n2)c1 [Compound 76, 2-cyclopropyl-A-[3-[(1S)-1-[(4-methyl-1,2,4-triazol-3-yl)sulfanyl]ethyl]phenyl]pyrimidine-4-carboxamide]	≤ 100 nM	< 1	2.51 to 5	5 to 7.5	1.01 to 1.3	1.01 to 1.3	1.31 to 1.5								
Cc1cc(C(=O)Nc2cccc([C@H](C)Sc3nncn3C)c2)nc(C(F)(F)F)c1 [Compound 65, (S)-4-methyl-N-(3-(1-((4-methyl-4H-1,2,4-triazol-3-yl)thio)ethyl)phenyl)-6-(trifluoromethyl)picolinamide]	≤ 100 nM	1.01 to 2.5	1.01 to 2.5	2.51 to 5	1.01 to 1.3	1.01 to 1.3	1.01 to 1.3								
Cc1cc(C(=O)Nc2cccc([C@H](C)Cc3nocc3C)c2)nc(C2CC2)n1 [Compound 330, (R)-2-cyclopropyl-6-methyl-N-(3-(1-(4-methylisoxazol-3-yl)propan-2-yl)phenyl)pyrimidine-4-carboxamide]	≤ 100 nM	1.01 to 2.5	2.51 to 5	5 to 7.5	1.01 to 1.3	1.01 to 1.3	1.01 to 1.3								
C[C@H](Cc1nncn1C)c1cccc(N2Cc3c(cc(C(=O)N4CC[C@H](O)C4)cc3C(F)(F)F)C2=O)c1 [Compound 274, 6-((S)-3-hydroxypyrrolidine-1-carbonyl)-2-(3-((R)-1-(4-methyl-4H-1,2,4-triazol-3-yl)propan-2-yl)phenyl)-4-(trifluoromethyl)isoindolin-1-one]	≤ 100 nM	1.01 to 2.5	2.51 to 5	> 7.5	1.01 to 1.3	1.01 to 1.3	1.31 to 1.5								
C[C@H](Cc1nncn1C)c1cccc(NC(=O)c2ccnc(C3CC3)n2)c1 [Compound 199, (R)-2-cyclopropyl-N-(3-(1-(4-methyl-4H-1,2,4-triazol-3-yl)propan-2-yl)phenyl)pyrimidine-4-carboxamide]	≤ 100 nM	2.51 to 5	5 to 7.5	> 7.5	1.01 to 1.3	1.31 to 1.5	1.51 to 1.75								
C[C@H](Sc1nncn1C)c1cccc(NC(=O)c2cc(C3CC3)cc(C(F)(F)F)n2)c1 [Compound 67, (S)-4-cyclopropyl-N-(3-(1-((4-methyl-4H-1,2,4-triazol-3-yl)thio)ethyl)phenyl)-6-(trifluoromethyl)picolinamide]	≤ 100 nM	1.01 to 2.5	1.01 to 2.5	2.51 to 5	1.01 to 1.3	1.01 to 1.3	1.01 to 1.3								
C[C@@H](c1cc2c(c(C(F)(F)F)c1)CN(c1cccc(C3(Cc4nncn4C)COC3)c1)C2=O)N1C[C@H]2C[C@H]2C1 [Compound 541a, 6-((1S)-1-(3-azabicyclo[3.1.0]hexan-3-yl)ethyl)-2-(3-(3-((4-methyl-4H-1,2,4-triazol-3-yl)methyl)oxetan-3-yl)phenyl)-4-(trifluoromethyl)isoindolin-1-one]	≤ 100 nM							> 7.5	> 7.5	1.31 to 1.5	1.31 to 1.5				
C[C@H](Cc1nncn1C)c1cc(NC2COC2)nc(N2Cc3c(cccc3C(F)(F)F)C2=O)c1 [Compound 352, 2-{4-[(2R)-1-(4-methyl-4H-1,2,4-triazol-3-yl)propan-2-yl]-6-[(oxetan-3-yl)amino]pyridin-2-yl}-4-(trifluoromethyl)-2,3-dihydro-1H-isoindol-1-one]	≤ 100 nM	1.01 to 2.5	1.01 to 2.5	5 to 7.5	1.01 to 1.3	1.01 to 1.3	1.31 to 1.5								
C[C@H](Cc1nncn1C)c1cccc(NC(=O)c2ccc(CO)c(C3CC3)n2)c1 [Compound 203, 6-cyclopropyl-5-(hydroxymethyl)-N-[3-[(2R)-1-(4-methyl-4H-1,2,4-triazol-3-yl)propan-2-yl]phenyl]pyridine-2-carboxamide]	≤ 100 nM	> 7.5	> 7.5	> 7.5	1.31 to 1.5	1.51 to 1.75	1.51 to 1.75								
Cn1cnnc1[C@H](F)C1(c2cccc(N3Cc4c(cc(CN5CCC(F)CC5)cc4C(F)(F)F)C3=O)c2)COC1 [Example 670b, (R)-2-(3-(3-(fluoro(4-methyl-4H-1,2,4-triazol-3-yl)methyl)oxetan-3-yl)phenyl)-6-((4-fluoropiperidin-1-yl)methyl)-4-(trifluoromethyl)isoindolin-1-one]	≤ 100 nM											> 7.5	> 7.5	> 1.76	> 1.76
COc1ccc(C(=O)Nc2cccc([C@H](C)Sc3nncn3C)c2)nc1C1CC1 [Compound 93, 6-cyclopropyl-5-methoxy-N-[3-[(1S)-1-[(4-methyl-1,2,4-triazol-3-yl)sulfanyl]ethyl]phenyl]pyridine-2-carboxamide]	≤ 100 nM	1.01 to 2.5	1.01 to 2.5	2.51 to 5	1.01 to 1.3	1.01 to 1.3	1.01 to 1.3								
C[C@H](c1cc2c(c(C(F)(F)F)c1)CN(c1cccc(C3(Cc4nncn4C)COC3)c1)C2=O)N1CCC(C)(F)CC1 [Example 553b, (R)-6-(1-(4-fluoro-4-methylpiperidin-1-yl)ethyl)-2-(3-(3-((4-methyl-4H-1,2,4-triazol-3-yl)methyl)oxetan-3-yl)phenyl)-4-(trifluoromethyl)isoindolin-1-one]	≤ 100 nM							> 7.5	> 7.5	> 1.76	> 1.76				
C[C@H](c1cc2c(c(C(F)(F)F)c1)CN(c1cccc(C3(C(F)(F)c4nncn4C)COC3)c1)C2=O)N1CC[C@H](F)C1 [Example 571, 2-(3-(3-(difluoro(4-methyl-4H-1,2,4-triazol-3-yl)methyl)oxetan-3-yl)phenyl)-6-((R)-1-((S)-3-fluoropyrrolidin-1-yl)ethyl)-4-(trifluoromethyl)isoindolin-1-one]	≤ 100 nM											> 7.5	> 7.5	> 1.76	> 1.76
C[C@H](c1cc2c(c(C(F)(F)F)c1)CN(c1cccc(C3([C@@H](F)c4nncn4C)COC3)c1)C2=O)N1CCC2(CC2)C1 [Example 576, 6-((R)-1-(5-azaspiro[2.4]heptan-5-yl)ethyl)-2-(3-(3-((R)-fluoro(4-methyl-4H-1,2,4-triazol-3-yl)methyl)oxetan-3-yl)phenyl)-4-(trifluoromethyl)isoindolin-1-one]	≤ 100 nM											> 7.5	> 7.5	> 1.76	> 1.76
